Test results from patent publication US11851426B2, “Bicyclic amines as CDK2 inhibitors” (Incyte Corporation, priority 2019, dated 2023).

molecular target: CDK2/Cyclin E1 (Homo sapiens (Human), UniProt P24941); assay: CDK2/Cyclin E1 HTRF enzyme activity assay; type: biochemical; settings: 1 mM ATP; CDK2/Cyclin E1 0.25 nM; 60 minutes at room temperature
Procedure, shortened: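 HTRF read-out of 4E-BP1 (Thr37/46) peptide phosphorylation (ULight peptide 50 nM) by 0.25 nM baculovirus-made GST-CDK2/FLAG-Cyclin E1, with ATP at 50 μM or 1 mM, 60 min at room temperature, pH 7.5. Eu-anti-phospho antibody with EDTA quench; IC50 fitted by three- or four-parameter dose-response.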

Row | IC50 | SMILES
1 | ≤ 20 nM | CC(C)Oc1c(-c2cn[nH]c2)ncn2nc(N[C@H]3CCN(S(=O)(=O)CCCN4CCCC4)C[C@H]3C)nc12 [Example 59, 8-Isopropoxy-N-((3R,4S)-3-methyl-1-((3-(pyrrolidin-1-yl)propyl)sulfonyl)piperidin-4-yl)-7-(1H-pyrazol-4-yl)-[1,2,4]triazolo[1,5-c]pyrimidin-2-amine]
2 | ≤ 20 nM | CS(=O)(=O)N1CCC(Nc2nc3ccc(-c4cn[nH]c4)c(OCC(F)(F)C(F)F)n3n2)CC1 [Example 81, N-(1-(Methylsulfonyl)piperidin-4-yl)-6-(1H-pyrazol-4-yl)-5-(2,2,3,3-tetrafluoropropoxy)-[1,2,4]triazolo[1,5-a]pyridin-2-amine]
3 | ≤ 20 nM | CCN(C)CCCS(=O)(=O)N1CC[C@H](Nc2nc3c(OC(C)C)c(-c4cn[nH]c4)ncn3n2)[C@H](C)C1 [Example 55, N-((3R,4S)-1-((3-(Ethyl(methyl)amino)propyl)sulfonyl)-3-methylpiperidin-4-yl)-8-isopropoxy-7-(1H-pyrazol-4-yl)-[1,2,4]triazolo[1,5-c]pyrimidin-2-amine]
4 | ≤ 20 nM | CCS(=O)(=O)N1CC[C@H](Nc2nc3cnc(-c4cn[nH]c4)c(OC4CCOCC4)n3n2)[C@H](C)C1 [Example 91, N-((3R,4S)-1-(Ethylsulfonyl)-3-methylpiperidin-4-yl)-6-(1H-pyrazol-4-yl)-5-((tetrahydro-2H-pyran-4-yl)oxy)-[1,2,4]triazolo[1,5-a]pyrazin-2-amine]
5 | ≤ 20 nM | C[C@@H]1CN(S(=O)(=O)c2cnn(C)c2)CC[C@@H]1Nc1nc2ccc(-c3cn[nH]c3)c(OC3CCOCC3)n2n1 [Example 99, N-((3R,4S)-3-Methyl-1-((1-methyl-1H-pyrazol-4-yl)sulfonyl)piperidin-4-yl)-6-(1H-pyrazol-4-yl)-5-((tetrahydro-2H-pyran-4-yl)oxy)-[1,2,4]triazolo[1,5-a]pyridin-2-amine]
6 | ≤ 20 nM | CS(=O)(=O)N1CCC(Nc2nc3c(N4CCC(F)CC4)c(-c4cn[nH]c4)ccn3n2)CC1 [Example 23, 8-(4-fluoropiperidin-1-yl)-N-(1-(methylsulfonyl)piperidin-4-yl)-7-(1H-pyrazol-4-yl)-[1,2,4]triazolo[1,5-a]pyridin-2-amine]
7 | ≤ 20 nM | C[C@@H]1CN(S(C)(=O)=O)CC[C@@H]1Nc1nc2ccc(-c3cn[nH]c3)c(N3CCCCC3)n2n1 [Example 83, N-((3R,4S)-3-Methyl-1-(methylsulfonyl)piperidin-4-yl)-5-(piperidin-1-yl)-6-(1H-pyrazol-4-yl)-[1,2,4]triazolo[1,5-a]pyridin-2-amine]

Row | SMILES | IC50
8 | CC(C)COc1c(-c2cn[nH]c2)ccc2nc(N[C@H]3CCN(S(C)(=O)=O)C[C@H]3C)nn12 [Example 70, 5-Isobutoxy-N-((3R,4S)-3-methyl-1-(methylsulfonyl)piperidin-4-yl)-6-(1H-pyrazol-4-yl)-[1,2,4]triazolo[1,5-a]pyridin-2-amine] | ≤ 20 nM
9 | CC(C)COc1c(-c2cn[nH]c2)ncc2nc(N[C@H]3CCN(S(C)(=O)=O)C[C@H]3C)nn12 [Example 101, 5-Isobutoxy-N-((3R,4S)-3-methyl-1-(methylsulfonyl)piperidin-4-yl)-6-(1H-pyrazol-4-yl)-[1,2,4]triazolo[1,5-a]pyrazin-2-amine] | ≤ 20 nM
